Assay results: ChEMBL document CHEMBL1135741, “Synthesis and biological evaluation of analogues of the peptaibol ampullosporin A” (J Med Chem, 2002)
Where a SMILES comes first, the peptide text is derived from it. [ ]: non-standard residue; d: D form. ξ: configuration not given here. Oic(3aξ,7aξ) = O=C(O)[C@@H]1CC2CCCCC2N1; 2Nal = N[C@@H](Cc1ccc2ccccc2c1)C(=O)O; Igl = N[C@H](C(=O)O)C1Cc2ccccc2C1; Tic = O=C(O)[C@@H]1Cc2ccccc2CN1; Leu(ol) = CC(C)C[C@H](N)CO; Aib = CC(C)(N)C(=O)O

Key:
[1] = system: Remotididymella destructiva; assay: Evaluated for pigment induction capacity based on the Phoma destructiva halo color; No activity; format: functional, organism-based
Mus musculus = species on record: Mus musculus; assay: Evaluated for its ability to modify the core body temperature of mice; No activity; format: functional, organism-based

Row | Compound | NA [1] | NA (Mus musculus)
1 | CC(=O)N[C@@H](Cc1c[nH]c2ccccc12)C(=O)N[C@@H](C)C(=O)NC(C)(C)C(=O)NC(C)(C)C(=O)N[C@@H](CC(C)C)C(=O)NC(C)(C)C(=O)N[C@@H](CCC(N)=O)C(=O)NC(C)(C)C(=O)NC(C)(C)C(=O)NC(C)(C)C(=O)N[C@@H](CCC(N)=O)C(=O)N[C@@H](CC(C)C)C(=O)NC(C)(C)C(=O)N[C@@H](CCC(N)=O)C(=O)O (Ac-WA[Aib][Aib]L[Aib]Q[Aib][Aib][Aib]QL[Aib]Q-OH) | No activity | No activity
2 | CC(=O)N[C@@H](Cc1c[nH]c2ccccc12)C(=O)N[C@@H](C)C(=O)N[C@@H](C)C(=O)N[C@@H](C)C(=O)N[C@@H](CC(C)C)C(=O)N[C@@H](C)C(=O)N[C@@H](CCC(N)=O)C(=O)N[C@@H](C)C(=O)N[C@@H](C)C(=O)N[C@@H](C)C(=O)N[C@@H](CCC(N)=O)C(=O)N[C@@H](CC(C)C)C(=O)N[C@@H](C)C(=O)N[C@@H](CCC(N)=O)C(=O)N[C@H](CO)CC(C)C (Ac-WAAALAQAAAQLAQ[Leu(ol)]) | No activity | No activity
3 | CC(C)C[C@@H](CO)NC(=O)[C@H](CCC(N)=O)NC(=O)C(C)(C)NC(=O)[C@H](CC(C)C)NC(=O)[C@H](CCC(N)=O)NC(=O)C(C)(C)NC(=O)C(C)(C)NC(=O)C(C)(C)NC(=O)[C@H](CCC(N)=O)NC(=O)C(C)(C)NC(=O)[C@H](CC(C)C)NC(=O)C(C)(C)NC(=O)C(C)(C)NC(=O)[C@H](C)NC(=O)[C@@H](N)Cc1c[nH]c2ccccc12 (H-WA[Aib][Aib]L[Aib]Q[Aib][Aib][Aib]QL[Aib]Q[Leu(ol)]) | – | No activity
4 | CC(C)C[C@@H](CO)NC(=O)[C@H](CCC(N)=O)NC(=O)C(C)(C)NC(=O)[C@H](CC(C)C)NC(=O)[C@H](CCC(N)=O)NC(=O)C(C)(C)NC(=O)C(C)(C)NC(=O)C(C)(C)NC(=O)[C@H](CCC(N)=O)NC(=O)C(C)(C)NC(=O)[C@H](CC(C)C)NC(=O)C(C)(C)NC(=O)C(C)(C)NC(=O)[C@H](C)N (H-A[Aib][Aib]L[Aib]Q[Aib][Aib][Aib]QL[Aib]Q[Leu(ol)]) | No activity | No activity
5 | CC(=O)N1Cc2ccccc2C[C@H]1C(=O)N[C@@H](C)C(=O)NC(C)(C)C(=O)NC(C)(C)C(=O)N[C@@H](CC(C)C)C(=O)NC(C)(C)C(=O)N[C@@H](CCC(N)=O)C(=O)NC(C)(C)C(=O)NC(C)(C)C(=O)NC(C)(C)C(=O)N[C@@H](CCC(N)=O)C(=O)N[C@@H](CC(C)C)C(=O)NC(C)(C)C(=O)N[C@@H](CCC(N)=O)C(=O)N[C@H](CO)CC(C)C (Ac-[Tic]A[Aib][Aib]L[Aib]Q[Aib][Aib][Aib]QL[Aib]Q[Leu(ol)]) | – | No activity
6 | CC(=O)N[C@@H](Cc1ccc2ccccc2c1)C(=O)N[C@@H](C)C(=O)NC(C)(C)C(=O)NC(C)(C)C(=O)N[C@@H](CC(C)C)C(=O)NC(C)(C)C(=O)N[C@@H](CCC(N)=O)C(=O)NC(C)(C)C(=O)NC(C)(C)C(=O)NC(C)(C)C(=O)N[C@@H](CCC(N)=O)C(=O)N[C@@H](CC(C)C)C(=O)NC(C)(C)C(=O)N[C@@H](CCC(N)=O)C(=O)N[C@H](CO)CC(C)C (Ac-[2Nal]A[Aib][Aib]L[Aib]Q[Aib][Aib][Aib]QL[Aib]Q[Leu(ol)]) | – | No activity
7 | CC(=O)N[C@@H](Cc1c[nH]c2ccccc12)C(=O)N[C@@H](C)C(=O)NC(C)(C)C(=O)NC(C)(C)C(=O)N[C@@H](CC(C)C)C(=O)N[C@@H](C)C(=O)N[C@@H](CCC(N)=O)C(=O)NC(C)(C)C(=O)NC(C)(C)C(=O)NC(C)(C)C(=O)N[C@@H](CCC(N)=O)C(=O)N[C@@H](CC(C)C)C(=O)NC(C)(C)C(=O)N[C@@H](CCC(N)=O)C(=O)N[C@H](CO)CC(C)C (Ac-WA[Aib][Aib]LAQ[Aib][Aib][Aib]QL[Aib]Q[Leu(ol)]) | – | No activity
8 | CC(=O)N1C2CCCCC2C[C@H]1C(=O)N[C@@H](C)C(=O)NC(C)(C)C(=O)NC(C)(C)C(=O)N[C@@H](CC(C)C)C(=O)NC(C)(C)C(=O)N[C@@H](CCC(N)=O)C(=O)NC(C)(C)C(=O)NC(C)(C)C(=O)NC(C)(C)C(=O)N[C@@H](CCC(N)=O)C(=O)N[C@@H](CC(C)C)C(=O)NC(C)(C)C(=O)N[C@@H](CCC(N)=O)C(=O)N[C@H](CO)CC(C)C (some centres not stated) (Ac-[Oic(3aξ,7aξ)]A[Aib][Aib]L[Aib]Q[Aib][Aib][Aib]QL[Aib]Q[Leu(ol)]) | No activity | No activity
9 | CC(=O)N[C@H](C(=O)N[C@@H](C)C(=O)NC(C)(C)C(=O)NC(C)(C)C(=O)N[C@@H](CC(C)C)C(=O)NC(C)(C)C(=O)N[C@@H](CCC(N)=O)C(=O)NC(C)(C)C(=O)NC(C)(C)C(=O)NC(C)(C)C(=O)N[C@@H](CCC(N)=O)C(=O)N[C@@H](CC(C)C)C(=O)NC(C)(C)C(=O)N[C@@H](CCC(N)=O)C(=O)N[C@H](CO)CC(C)C)C1Cc2ccccc2C1 (Ac-[Igl]A[Aib][Aib]L[Aib]Q[Aib][Aib][Aib]QL[Aib]Q[Leu(ol)]) | – | No activity
10 | CC(=O)N[C@@H](C)C(=O)NC(C)(C)C(=O)NC(C)(C)C(=O)N[C@@H](CC(C)C)C(=O)NC(C)(C)C(=O)N[C@@H](CCC(N)=O)C(=O)NC(C)(C)C(=O)NC(C)(C)C(=O)NC(C)(C)C(=O)N[C@@H](CCC(N)=O)C(=O)N[C@@H](CC(C)C)C(=O)NC(C)(C)C(=O)N[C@@H](CCC(N)=O)C(=O)N[C@H](CO)CC(C)C (Ac-A[Aib][Aib]L[Aib]Q[Aib][Aib][Aib]QL[Aib]Q[Leu(ol)]) | No activity | No activity
11 | CC[C@@H](C)[C@H](NC(=O)[C@H](CC(C)C)NC(=O)[C@@H](NC(=O)[C@@H](NC(=O)[C@H](C)NC(=O)[C@H](Cc1c[nH]c2ccccc12)NC(C)=O)[C@@H](C)CC)[C@H](C)CC)C(=O)N[C@@H](CCC(N)=O)C(=O)N[C@H](C(=O)N[C@H](C(=O)N[C@H](C(=O)N[C@@H](CCC(N)=O)C(=O)N[C@@H](CC(C)C)C(=O)N[C@H](C(=O)N[C@@H](CCC(N)=O)C(=O)N[C@H](CO)CC(C)C)[C@@H](C)CC)[C@H](C)CC)[C@@H](C)CC)[C@H](C)CC | No activity | No activity
